Measured values as given in US7834141B1, “Non-mammalian GnRH analogs and uses thereof in tumor cell growth regulation and cancer therapy” (priority 2000, dated 2010).
Where two headings read alike, the source gives them in different places. Where a SMILES comes first, the peptide text is derived from it.

Key:
[1] = test system: chorionic post-proline peptidase; test: Competitive inhibition of mammalian GnRH degradation by chorionic post-proline peptidase (enzymatic activity assay, RIA of remaining substrate); details: for relative potency of inhibition of chorionic post-proline peptidase activity compared to that for GnRH: substrate mammalian GnRH, GnRH = 1
Experimental: (§1) Using the incubation system developed for chorionic post-proline peptidase activity, the degradation of GnRH was tested. Each of these analogs (SEQ ID NO: 2, SEQ ID NO: 4 and SEQ ID NO: 7) were first studied for their ability to act as a competitive inhibitor of GnRH for chorionic post-proline peptidase activity using the enzymatic activity assay as described previously (103). […] The reaction was stopped by heating at 85° C. for 10 minutes. […] The product formed, i.e. the N-terminal nonapeptide of GnRH, was calculated by subtraction, and its inverse plotted against the inverse of the original substrate concentrations to determine the Ks of the competition. The Ki was determined by plotting the inverse of the product that formed versus the inhibitor used.

[2] = test system: MCF-7 breast cancer cells; test: MCF-7 breast cancer cell culture viability, Alamar Blue assay; assay type: cell-based, human; details: for inhibition of cell proliferation (cell viability, Alamar Blue): MCF-7, 24 hours of incubation, dose-response; for inhibition of cell proliferation: MCF-7, 48 hours of incubation
Experimental: This system allows for replicated extended activity studies.
The bio-potency studies were done with a MCF-7 breast cancer cell culture system and the cell viability as a measure of survival was assessed using the Alamar Blue assay. The percent difference in the Alamar Blue optical density (OD) readings at 570 and 600 nm in the treated and untreated controls was determined. […] A dose-response study in quadruplicate cultures was performed. Cell viability was assessed after 24 and 48 hours of incubation with the activity agent.

[3] = test system: MCF-7 breast cancer cells; test: Degradation of GnRH and analogs by tumor tissue cells, with or without peptidase inhibitors; assay type: in vitro ADME, human
Text: Post-Proline Peptidase Stability Studies: As mentioned earlier, the post-proline peptidase is important in actively degrading peptides that contain a proline residue. GnRH is such a peptide. Initially the enzymatic activity of the tumor cell was studied. Tumor tissue cells and their spent media were studied for enzyme activity. In particular, examination was made for the degradation of GnRH both with and without specific post-proline and endopeptidase activity inhibitors to determine the specificity of the tumor enzymatic activity.
Chorionic post-proline peptidase is a peptidase with high specificity for the degradation of GnRH at the proline-glycine bond, but can also degrade other GnRH species containing this bond.

[4] = test system: GnRH receptors on the cells of MCF-7 breast cancer cells; test: Competitive binding of I^125-D-Arg(6)-Chicken II GnRH-aza-Gly(10)-amide to MCF-7 breast cancer cells; design: species or system human; details: for competitive inhibition of I^125-D-Arg(6)-Chicken II GnRH-aza-Gly(10)-amide binding (rank of potency): MCF-7 cells, 24 hours at room temperature; for receptor potency (in words): receptor test not given
Experimental: GnRH receptors on the cells of MCF-7 breast cancer cells were studied. The cells were plated on 96 wells and grown to confluency in base medium (M3D:Fetal Bovine Serum [9:1]). Prior to the experiment the cells were down shifted to M3D:Fetal Bovine Serum [99:1] and then to serum-free medium. […] Addition of enzyme inhibitors of the endogenous post-proline peptidase and other peptidases were used as well as agents for receptor stabilization. Receptor bound label was separated by centrifugation. The binding of the non-mammalian GnRH analog and its ability to regulate the tumor cells' GnRH receptor was compared. […] This was followed by Buserilin. […] This indicated the high innate affinity of this isoform of GnRH for the tumor GnRH receptor. It is believed by Applicants that the same or similar results could be obtained using other non-mammalian GnRH isomers or analogs with similar amino acid structure as Chicken II GnRH such as but not limited to Salmon GnRH, Herring GnRH, Catfish GnRH, or Dogfish GnRH.

[5] = test system: chorionic post-proline peptidase
Experimental: as §1

Molecule: des-Gly(10), D-Trp(6)-GnRH ethylamide
- degradation by chorionic post-proline peptidase (in words) [1]: competitively inhibited the degradation of mammalian GnRH

Molecule: CCNC(=O)[C@@H]1CCCN1C(=O)[C@H](CCCNC(=N)N)NC(=O)[C@H](CC(C)C)NC(=O)[C@@H](CC(C)C)NC(=O)[C@H](Cc1ccc(O)cc1)NC(=O)[C@H](CO)NC(=O)[C@H](Cc1c[nH]c2ccccc12)NC(=O)[C@H](Cc1c[nH]cn1)NC(=O)[C@@H]1CCC(=O)N1 [Leuprolide]
- inhibition of cell proliferation (cell viability, Alamar Blue) [2]: totally inactive

Molecule: des-Gly(10)-GnRH ethylamide
- degradation by chorionic post-proline peptidase (in words) [1]: competitively inhibited the degradation of mammalian GnRH

Molecule: CC[C@H](C)[C@H](N)C1=N[C@H](C(=O)N[C@@H](CC(C)C)C(=O)N[C@H](CCC(=O)O)C(=O)N[C@H](C(=O)N[C@H]2CCCCNC(=O)[C@H](CC(N)=O)NC(=O)[C@@H](CC(=O)O)NC(=O)[C@H](Cc3cnc[nH]3)NC(=O)[C@@H](Cc3ccccc3)NC(=O)[C@H]([C@@H](C)CC)NC(=O)[C@@H](CCCN)NC2=O)[C@@H](C)CC)CS1 [bacitracin] (HELM PEPTIDE1{[CC[C@H](C)[C@H](N)C1=N[C@H](C(=O)[*:2])CS1].L.[dE].I.K.[NCCC[C@@H](N[*:1])C(=O)[*:2]].I.[dF].H.[dD].N}$PEPTIDE1,PEPTIDE1,5:R3-11:R2$$$V2.0)
- inhibition of the degradation of mammalian GnRH in tumor cell extracts ([3]; specific inhibitors of post-proline peptidase): inhibited

Molecule: N=C(N)NCCC[C@@H](NC(=O)[C@H](Cc1c[nH]cn1)NC(=O)[C@H](CO)NC(=O)[C@H](Cc1c[nH]c2ccccc12)NC(=O)[C@H](Cc1c[nH]cn1)NC(=O)[C@@H]1CCC(=O)N1)C(=O)N[C@@H](Cc1c[nH]c2ccccc12)C(=O)N[C@@H](Cc1ccc(O)cc1)C(=O)N1CCC[C@H]1C(=O)NNC(N)=O [D-Arg(6)-Chicken II GnRH-aza-Gly(10)-amide] (HELM PEPTIDE1{[Glp].H.W.S.H.[dR].W.Y.P.[O=C(NN[*:1])[*:2]].[am]}$$$$V2.0)
- inhibition of cell proliferation (cell viability, Alamar Blue) [2]: positive dose-related activity
- inhibition of cell proliferation at 10^−5 M ([2]; MCF-7, 24 hours, 10^−5 M): markedly active
- inhibition of cell proliferation [2]: equally as potent as at 24 hours
- degradation by chorionic post-proline peptidase (in words) [1]: resistant to degradation
- binding of I^125-labelled analog to MCF-7 breast cancer cells ([4]; 24 hours of incubation, no exogenous GnRH): specifically bound the MCF-7 breast cancer cells
- competitive inhibition of I^125-D-Arg(6)-Chicken II GnRH-aza-Gly(10)-amide binding (rank of potency) [4]: greatest potency
- receptor potency (in words) [4]: increased receptor potency

Molecule: Antide
- degradation by chorionic post-proline peptidase (in words) [1]: degraded with reduced activity
- potency as competitor for chorionic post-proline peptidase compared to GnRH (in words) [1]: three fold less potent than GnRH
- relative potency of inhibition of chorionic post-proline peptidase activity compared to that for GnRH [1]: 0.6

Molecule: des-Gly(10)-D-Leu(6)-GnRH ethylamide
- degradation by chorionic post-proline peptidase (in words) [1]: competitively inhibited the degradation of mammalian GnRH

Molecule: Im-btl-D-His(6)-GnRH-ethylamide
- receptor potency (in words) [4]: reduced receptor potency

Molecule: OH-Pro(9)-GnRH
- relative potency of inhibition of chorionic post-proline peptidase activity compared to that for GnRH [1]: 1.5

Molecule: CCNC(=O)[C@@H]1CCCN1C(=O)[C@H](CCCNC(=N)N)NC(=O)[C@H](CC(C)C)NC(=O)[C@@H](COC(C)(C)C)NC(=O)[C@H](Cc1ccc(O)cc1)NC(=O)[C@H](CO)NC(=O)[C@H](Cc1c[nH]c2ccccc12)NC(=O)[C@H](Cc1cnc[nH]1)NC(=O)[C@@H]1CCC(=O)N1 [Buserilin]
- inhibition of cell proliferation (cell viability, Alamar Blue) [2]: totally inactive
- degradation by chorionic post-proline peptidase (in words) [1]: competitively inhibited the degradation of mammalian GnRH

Molecule: Mammalian GnRH: mammalian gonadotropin releasing hormone decapeptide
- inhibition of cell proliferation [2]: totally ineffective
- degradation of mammalian GnRH by the tumor tissue cells ([3]; after overnight incubation): ~100%
- competitive inhibition of I^125-D-Arg(6)-Chicken II GnRH-aza-Gly(10)-amide binding (rank of potency) [4]: weakest competitor
- degradation by chorionic post-proline peptidase (in words) [5]: actively degraded
